In assay [1] the test system is Aspergillus fumigatus. In words: Antifungal activity against Aspergillus fumigatus isolate CEA 10 infected in ICR mouse assessed as decrease in (1-3)-beta-D-glucan concentration in serum at 40 mg/kg, po QD (RVb= 707 pg/ml). Also noted: dose 40 mg/kg. In kind it is functional, organism-based.
Assay [2] concerns Aspergillus fumigatus. In words: Antifungal activity against Aspergillus fumigatus isolate AF 293 infected in ICR mouse assessed as decrease in (1-3)-beta-D-glucan concentration in serum at 40 mg/kg, po QD (RVb= 758 pg/ml). It is filed as functional, organism-based. Also noted: dose 40 mg/kg.
The subject of assay [3] is Aspergillus fumigatus. In words: Antifungal activity against Aspergillus fumigatus isolate CEA 10 infected in ICR mouse assessed survival of the mouse at 40 mg/kg, po QD. In kind it is functional, organism-based. Also on record: dose 40 mg/kg.
For assay [4], the system named is Aspergillus fumigatus. Kind of assay: Antifungal activity against Aspergillus fumigatus isolate AF 293 infected in ICR mouse assessed survival of the mouse at 40 mg/kg, po QD. It is filed as functional, organism-based. Also on record: dose 40 mg/kg.
The test system of assay [5] is Aspergillus fumigatus. Kind of assay: Antifungal activity against Aspergillus fumigatus isolate CEA 10 infected in ICR mouse assessed as pulmonary fungal burden at 40 mg/kg, po QD. It is filed as functional.
In assay [6] the test system is Aspergillus fumigatus. Kind of assay: Antifungal activity against Aspergillus fumigatus isolate AF 293 infected in ICR mouse assessed as pulmonary fungal burden at 40 mg/kg, po QD. It is filed as functional.

Calls of active or inactive are those of the source. No cut-off for these calls is given here.

As for `CC[C@@H]([C@H](C)O)n1ncn(-c2ccc(N3CCN(c4ccc(OC[C@@H]5CO[C@@](Cn6cncn6)(c6ccc(F)cc6F)C5)cc4)CC3)cc2)c1=O` [POSACONAZOLE], the result with Aspergillus fumigatus [1], in the assay on Aspergillus fumigatus [2], with Aspergillus fumigatus [3] and with Aspergillus fumigatus [4] was Active. For the same compound, the “fold change (FC)” value is listed as 7.3 in the assay with Aspergillus fumigatus [5] and 3.6 in the assay on Aspergillus fumigatus [6].

These data come from ChEMBL document CHEMBL1255257, “Assessment of serum (1->3)-beta-D-glucan concentration as a measure of disease burden in a murine model of invasive pulmonary aspergillosis” (2008).
